Residue numbers refer to the chain shown, from its start.
What was measured:
[1] = target: T1, F130Y mutant 5-HT3 receptor (Mus musculus, UniProt P23979, F130Y); details: whole cell electrophysiology, ref Steward et al. 2000; cited from earlier work
T1 sequence (P23979 24-483 isoform P23979-2 F130Y limits assumed): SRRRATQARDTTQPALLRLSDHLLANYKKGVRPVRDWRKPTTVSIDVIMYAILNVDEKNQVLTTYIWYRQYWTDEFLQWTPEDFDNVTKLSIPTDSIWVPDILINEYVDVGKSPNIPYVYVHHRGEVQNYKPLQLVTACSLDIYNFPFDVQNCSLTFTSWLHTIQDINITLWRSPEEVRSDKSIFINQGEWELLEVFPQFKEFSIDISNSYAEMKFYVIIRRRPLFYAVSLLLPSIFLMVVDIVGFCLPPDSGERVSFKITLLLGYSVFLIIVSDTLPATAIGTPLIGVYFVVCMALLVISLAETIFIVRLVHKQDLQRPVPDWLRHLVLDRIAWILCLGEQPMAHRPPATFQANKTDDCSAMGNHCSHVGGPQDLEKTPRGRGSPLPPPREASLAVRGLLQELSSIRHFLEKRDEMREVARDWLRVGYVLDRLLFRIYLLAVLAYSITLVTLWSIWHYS

[2] = target: T2, N128D mutant 5-HT3 receptor (Mus musculus, UniProt P23979, N128D); details: HEK 293 cells
T2 sequence (P23979 24-483 isoform P23979-2 N128D limits assumed): T1 sequence (P23979 24-483 isoform P23979-2 F130Y limits assumed) with N105D, Y107F

[3] = target: T3, N128L mutant 5-HT3 receptor (Mus musculus, UniProt P23979, N128L); details: HEK 293 cells
T3 sequence (P23979 24-483 isoform P23979-2 N128L limits assumed): T1 sequence (P23979 24-483 isoform P23979-2 F130Y limits assumed) with N105L, Y107F

[4] = target: T4, F130A mutant 5-HT3 receptor (Mus musculus, UniProt P23979, F130A); assay: FlexStation membrane potential dye functional assay; type: cell-based
T4 sequence (P23979 24-483 isoform P23979-2 F130A limits assumed): T1 sequence (P23979 24-483 isoform P23979-2 F130Y limits assumed) with Y107A

[5] = target: T5, N128R mutant 5-HT3 receptor (Mus musculus, UniProt P23979, N128R)
T5 sequence (P23979 24-483 isoform P23979-2 N128R limits assumed): T1 sequence (P23979 24-483 isoform P23979-2 F130Y limits assumed) with N105R, Y107F

[6] = target: T1, F130Y mutant 5-HT3 receptor; assay: FlexStation membrane potential dye functional assay; type: cell-based; details: HEK 293 cells
[7] = target: T6, N128V mutant 5-HT3 receptor (Mus musculus, UniProt P23979, N128V); assay: as above; type: cell-based
T6 sequence (P23979 24-483 isoform P23979-2 N128V limits assumed): T1 sequence (P23979 24-483 isoform P23979-2 F130Y limits assumed) with N105V, Y107F

[8] = target: T7, N128E mutant 5-HT3 receptor (Mus musculus, UniProt P23979, N128E); assay: as above; type: cell-based
T7 sequence (P23979 24-483 isoform P23979-2 N128E limits assumed): T1 sequence (P23979 24-483 isoform P23979-2 F130Y limits assumed) with N105E, Y107F

[9] = target: T8, F130W mutant 5-HT3 receptor (Mus musculus, UniProt P23979, F130W); assay: as above; type: cell-based
T8 sequence (P23979 24-483 isoform P23979-2 F130W limits assumed): T1 sequence (P23979 24-483 isoform P23979-2 F130Y limits assumed) with Y107W

[10] = target: T9, N128Q mutant 5-HT3 receptor (Mus musculus, UniProt P23979, N128Q); details: HEK 293 cells
T9 sequence (P23979 24-483 isoform P23979-2 N128Q limits assumed): T1 sequence (P23979 24-483 isoform P23979-2 F130Y limits assumed) with N105Q, Y107F

[11] = target: F130N mutant 5-HT3 receptor; details: F130N mutant receptor activated with acetylcholine; ref Steward et al. 2000; cited from earlier work

| SMILES | increase in EC50 versus wild type reported previously [1] [fold] | Hill Coefficient [2] | Hill Coefficient [3] | change in EC50 versus wild type [4] | Hill Coefficient ([4]; HEK 293 cells) | factor of increase in EC50 versus wild type [5] | Hill Coefficient [6] | change in EC50 versus wild type [7] | Hill Coefficient ([7]; HEK 293 cells) | change in EC50 versus wild type [8] | Hill Coefficient ([8]; HEK 293 cells) | change in EC50 versus wild type [9] | Hill Coefficient ([9]; HEK 293 cells) | Hill Coefficient [10] | EC50 [11] [µM] |
| --- | --- | --- | --- | --- | --- | --- | --- | --- | --- | --- | --- | --- | --- | --- | --- |
| NCCc1c[nH]c2ccc(O)cc12 [5-HT, 5-hydroxytryptamine] | 8 | 2.169±0.68 | 2.519±0.15 | four-fold decrease in EC50 | 2.959±0.39 | ~1500 | 2.609±0.39 | four-fold decrease in EC50 | 1.809±0.34 | did not significantly affect the EC50 | 2.369±0.12 | four-fold decrease in EC50 | 2.159±0.35 | 1.929±0.08 | – |
| CC(=O)OCC[N+](C)(C)C [acetylcholine] | – | – | – | – | – | – | – | – | – | – | – | – | – | – | 256 |

Reference: paper PMC2649376 (Molecular membrane biology, 2006)
